pIC50: −log10 of the molar value.
What was measured:
Tau-BiFC cells = assay: Cytotoxicity (cell survival rate) in tau-BiFC cells; conditions: group treated with Forskolin alone = 100%
Procedure, shortened: (§1)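 Tau-BiFC cells co-treated 48 h with Forskolin ([…]) and compound at 0.03–30 μM. BiFC fluorescence quantified by imaging, IC50 by nonlinear regression; cytotoxicity as Hoechst-stained nuclei count relative to Forskolin-only wells (100% survival).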

[1] = Liver microsomal stability (mouse); format: in vitro ADME; conditions: amount of substrate remaining; 1 μM, 0.25 mg/mL microsomes, 37° C., 30 minutes
Protocol: (§2) The liver microsomal stability of the compounds prepared according to Examples 1 to 171 was confirmed. Specifically, four kinds of liver microsomes (human, dog, rat, and mouse, each 0.25 mg/mL), a 0.1 M phosphate buffer solution (pH 7.4), and the compounds with a concentration of 1 μM were added, respectively. Then the mixture was cultured in advance at 37° C. for 5 minutes, and then further cultured at 37° C. for 30 minutes together with the addition of an NADPH generation system solution. Thereafter, a reaction was terminated by adding an acetonitrile solution containing an internal standard material (chloropropamide), centrifugal separation (14,000 rpm, 4° C.) was performed for 5 minutes, and then a supernatant was injected into an LC-MS/MS system. The substrate drugs were analyzed to evaluate the metabolic stability for 8 kinds of compounds.
(§3) The amount of substrate remaining through the reaction was analyzed using the Shimadzu Nexera XR system and TSQ vantage (Thermo). Kinetex XB-C18 (2.1 mm×100 mm, 2.6 μm, particle size; Phenomenex, USA) was used in an HPLC column, and (A) distilled water containing 0.1% formic acid and (B) acetonitrile containing 0.1% formic acid were used as mobile phases. Analyst software (version 1.6.3) and Xcalibur (version 1.6.1) were used for data analysis.

tau protein = molecular target: T1, tau protein (Homo sapiens, UniProt P10636); assay: Tau protein aggregation inhibition in tau-BiFC cell model; format: cell-based; conditions: tau-BiFC cells treated together with Forskolin, 48 hours
T1 construct: expressed in transfected cells
T1 sequence (P10636 2-441 isoform P10636-8 limits assumed): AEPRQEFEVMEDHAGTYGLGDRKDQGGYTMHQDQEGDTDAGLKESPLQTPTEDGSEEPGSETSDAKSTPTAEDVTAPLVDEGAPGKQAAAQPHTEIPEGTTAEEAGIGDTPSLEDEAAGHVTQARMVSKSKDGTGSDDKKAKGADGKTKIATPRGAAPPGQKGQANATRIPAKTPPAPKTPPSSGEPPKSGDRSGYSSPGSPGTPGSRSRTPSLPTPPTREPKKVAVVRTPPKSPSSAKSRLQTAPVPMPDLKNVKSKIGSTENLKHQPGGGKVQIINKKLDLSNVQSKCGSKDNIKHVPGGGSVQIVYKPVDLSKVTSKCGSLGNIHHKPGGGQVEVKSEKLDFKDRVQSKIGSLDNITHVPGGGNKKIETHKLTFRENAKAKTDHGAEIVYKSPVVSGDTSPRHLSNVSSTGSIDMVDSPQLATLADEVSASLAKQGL
Procedure, shortened: as §1

[2] = Liver microsomal stability (dog); format: in vitro ADME; conditions: amount of substrate remaining; 1 μM, 0.25 mg/mL microsomes, 37° C., 30 minutes
Protocol: as §2, §3

CYP3A4 = molecular target: T2, CYP3A4 (Homo sapiens, UniProt P08684); assay: Inhibition of CYP coenzyme activity in human liver microsomes; format: in vitro ADME; design: scale not given here; conditions: compound 10 PM (so in the source); human liver microsomes 0.25 mg/mL; substrate midazolam; 15 minutes
T2 construct: human liver microsomes (0.25 mg/mL); from tissue; host or cells: human liver microsomes
T2 sequence (P08684 whole entry): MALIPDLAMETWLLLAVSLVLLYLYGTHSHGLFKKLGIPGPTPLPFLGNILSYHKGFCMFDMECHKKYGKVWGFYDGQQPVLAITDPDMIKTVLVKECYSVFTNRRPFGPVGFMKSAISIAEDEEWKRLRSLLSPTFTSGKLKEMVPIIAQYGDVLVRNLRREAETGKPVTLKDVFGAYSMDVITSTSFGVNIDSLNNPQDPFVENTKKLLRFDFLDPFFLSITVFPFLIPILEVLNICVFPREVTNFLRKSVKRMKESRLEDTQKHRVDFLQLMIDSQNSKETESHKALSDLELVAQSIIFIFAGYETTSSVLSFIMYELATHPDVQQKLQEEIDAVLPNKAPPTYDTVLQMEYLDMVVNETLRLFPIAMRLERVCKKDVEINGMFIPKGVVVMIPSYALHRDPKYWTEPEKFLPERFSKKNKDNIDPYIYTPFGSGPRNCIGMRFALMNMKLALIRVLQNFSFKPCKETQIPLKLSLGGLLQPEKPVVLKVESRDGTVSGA
Protocol: (§4) 5 The inhibition effects of CYP coenzyme activity by the compounds prepared according to Examples 1 to 171 was confirmed. Specifically, human liver microsomes (0.25 mg/mL), a 0.1 M phosphate buffer solution (pH 7.4), substrate drug cocktails (phenacetin 50 μM, diclofenac 10 μM, S-mephenytoin 100 μM, dextromethorphan 5 μM, and midazolam 2.5 μM) of five kinds of drug metabolism enzymes, and the compounds with a concentration of 0 μM or 10 PM were added, respectively. Then the mixture was cultured in advance at 37° C. for 5 minutes, and then further cultured at 37° C. for 15 minutes together with the addition of an NADPH generation system solution. Thereafter, a reaction was terminated by adding an acetonitrile solution containing an internal standard material (terfenadine), centrifugal separation (14,000 rpm, 4° C.) was performed for 5 minutes, and then a supernatant was injected into an LC-MS/MS system. Metabolites of the substrate drugs were simultaneously analyzed to evaluate the drug metabolism inhibition ability.
(§5) Metabolites of each CYP coenzyme indicator drug generated through the reaction were analyzed using the Shimadzu Nexera XR system and TSQ vantage (Thermo). Kinetex C18 (2.1 mm×100 mm, 2.6 μm, particle size; Phenomenex, USA) was used in an HPLC column, and (A) distilled water containing 0.1% formic acid and (B) acetonitrile containing 0.1% formic acid were used as mobile phases, and the gradient program shown in Table 2 was applied.
(§6) The generated metabolites were quantified using an MRM (multiple reaction monitoring) quantification mode, and Xcalibur (version 1.6.1) was used for data analysis.

[3] = Liver microsomal stability (human); format: in vitro ADME; conditions: amount of substrate remaining; 1 μM, 0.25 mg/mL microsomes, 37° C., 30 minutes
Protocol: as §2, §3

CYP1A2 = molecular target: T3, CYP1A2 (Homo sapiens, UniProt P05177); assay: Inhibition of CYP coenzyme activity in human liver microsomes; format: in vitro ADME; conditions: compound 10 PM (so in the source); human liver microsomes 0.25 mg/mL; substrate phenacetin; 15 minutes
T3 construct: human liver microsomes (0.25 mg/mL); from tissue; host or cells: human liver microsomes
T3 sequence (P05177 1-516): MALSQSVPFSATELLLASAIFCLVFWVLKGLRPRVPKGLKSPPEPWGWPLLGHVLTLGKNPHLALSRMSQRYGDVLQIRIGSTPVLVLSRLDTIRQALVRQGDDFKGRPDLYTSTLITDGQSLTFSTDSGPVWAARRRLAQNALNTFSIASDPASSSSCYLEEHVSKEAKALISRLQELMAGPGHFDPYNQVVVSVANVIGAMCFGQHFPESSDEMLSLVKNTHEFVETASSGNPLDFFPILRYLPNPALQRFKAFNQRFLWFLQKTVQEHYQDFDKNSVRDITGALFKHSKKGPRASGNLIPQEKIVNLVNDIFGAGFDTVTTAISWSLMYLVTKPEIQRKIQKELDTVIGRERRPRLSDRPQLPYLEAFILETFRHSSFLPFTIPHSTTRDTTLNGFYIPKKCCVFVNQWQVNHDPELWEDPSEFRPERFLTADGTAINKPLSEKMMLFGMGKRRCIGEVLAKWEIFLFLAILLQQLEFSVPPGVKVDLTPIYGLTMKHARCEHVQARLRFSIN
Protocol: as §4, §5, §6

CYP2C9 = molecular target: T4, CYP2C9 (Homo sapiens, UniProt P11712); assay: as above; format: in vitro ADME; conditions: compound 10 PM (so in the source); human liver microsomes 0.25 mg/mL; substrate diclofenac; 15 minutes
T4 construct: human liver microsomes (0.25 mg/mL); from tissue; host or cells: human liver microsomes
T4 sequence (P11712 whole entry): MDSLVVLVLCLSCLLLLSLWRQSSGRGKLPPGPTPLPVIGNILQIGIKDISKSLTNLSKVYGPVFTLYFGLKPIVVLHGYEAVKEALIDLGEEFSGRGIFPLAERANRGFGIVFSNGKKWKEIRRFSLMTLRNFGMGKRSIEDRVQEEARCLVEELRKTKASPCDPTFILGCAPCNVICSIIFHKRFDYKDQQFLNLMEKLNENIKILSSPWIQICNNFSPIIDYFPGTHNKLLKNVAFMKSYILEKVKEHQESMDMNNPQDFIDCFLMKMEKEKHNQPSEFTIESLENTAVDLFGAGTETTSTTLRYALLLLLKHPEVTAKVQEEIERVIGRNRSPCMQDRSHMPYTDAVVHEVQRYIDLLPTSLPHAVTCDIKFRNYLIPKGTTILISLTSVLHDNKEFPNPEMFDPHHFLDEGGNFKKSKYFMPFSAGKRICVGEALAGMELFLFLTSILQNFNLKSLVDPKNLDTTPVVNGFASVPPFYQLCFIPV
Protocol: as §4, §5, §6

CYP2C19 = molecular target: T5, CYP2C19 (Homo sapiens, UniProt P33261); assay: as above; format: in vitro ADME; conditions: compound 10 PM (so in the source); human liver microsomes 0.25 mg/mL; substrate S-mephenytoin; 15 minutes
T5 construct: human liver microsomes (0.25 mg/mL); from tissue; host or cells: human liver microsomes
T5 sequence (P33261 whole entry): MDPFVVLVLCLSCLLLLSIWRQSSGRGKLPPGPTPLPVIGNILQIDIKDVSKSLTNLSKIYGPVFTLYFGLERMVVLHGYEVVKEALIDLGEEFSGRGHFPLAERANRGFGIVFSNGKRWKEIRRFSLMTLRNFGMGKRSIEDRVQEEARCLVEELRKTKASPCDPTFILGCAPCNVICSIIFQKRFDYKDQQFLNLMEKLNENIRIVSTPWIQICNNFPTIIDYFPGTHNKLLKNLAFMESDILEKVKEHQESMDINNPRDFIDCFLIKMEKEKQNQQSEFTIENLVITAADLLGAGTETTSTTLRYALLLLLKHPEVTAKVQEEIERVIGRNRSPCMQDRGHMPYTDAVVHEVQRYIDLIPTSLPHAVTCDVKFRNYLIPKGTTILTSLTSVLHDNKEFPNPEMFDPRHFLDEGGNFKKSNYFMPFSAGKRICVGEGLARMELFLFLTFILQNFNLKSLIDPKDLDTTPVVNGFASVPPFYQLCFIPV
Protocol: as §4, §5, §6

CYP2D6 = molecular target: T6, CYP2D6 (Homo sapiens, UniProt P10635); assay: as above; format: in vitro ADME; conditions: compound 10 PM (so in the source); human liver microsomes 0.25 mg/mL; substrate dextromethorphan; 15 minutes
T6 construct: human liver microsomes (0.25 mg/mL); from tissue; host or cells: human liver microsomes
T6 sequence (P10635 whole entry): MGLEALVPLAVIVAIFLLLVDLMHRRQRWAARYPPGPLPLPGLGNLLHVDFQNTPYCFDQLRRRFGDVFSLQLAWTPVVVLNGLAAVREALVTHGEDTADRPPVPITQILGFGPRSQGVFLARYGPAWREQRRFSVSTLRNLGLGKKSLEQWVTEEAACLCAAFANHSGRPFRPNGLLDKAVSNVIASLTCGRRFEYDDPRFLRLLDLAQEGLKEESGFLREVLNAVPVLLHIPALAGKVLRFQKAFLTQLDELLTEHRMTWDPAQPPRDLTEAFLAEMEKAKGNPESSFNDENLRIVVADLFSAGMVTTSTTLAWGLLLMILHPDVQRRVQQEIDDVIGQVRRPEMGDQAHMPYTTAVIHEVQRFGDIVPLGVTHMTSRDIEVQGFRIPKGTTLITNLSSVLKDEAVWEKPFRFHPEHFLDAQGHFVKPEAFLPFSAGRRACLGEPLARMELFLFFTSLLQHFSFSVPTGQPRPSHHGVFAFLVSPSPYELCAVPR
Protocol: as §4, §5, §6

[4] = Liver microsomal stability (rat); format: in vitro ADME; conditions: amount of substrate remaining; 1 μM, 0.25 mg/mL microsomes, 37° C., 30 minutes
Protocol: as §2, §3

Structure (SMILES)	Cell survival rate (% @ 10 μM) (Tau-BiFC cells) [%]	liver microsomal stability, Mouse (%) [1] [%]	pIC50 (tau protein)	liver microsomal stability, Dog (%) [2] [%]	inhibition effects of CYP coenzyme activity, CYP3A4 (CYP3A4)	liver microsomal stability, Human (%) [3] [%]	inhibition effects of CYP coenzyme activity, CYP1A2 (CYP1A2)	inhibition effects of CYP coenzyme activity, CYP2C9 (CYP2C9)	inhibition effects of CYP coenzyme activity, CYP2C19 (CYP2C19)	inhibition effects of CYP coenzyme activity, CYP2D6 (CYP2D6)	liver microsomal stability, Rat (%) [4] [%]
Cn1cc2c(-c3ccc(NN=C(C#N)C#N)cc3)cccc2n1 [Compound 55, (4-(2-methyl-2H-indazol-4-yl)phenyl)carbonohydrazonoyl dicyanide]	120.1	71.2	6.00	85.6	87.6	70	66.9	59.5	86	>100	60.8
N#CC(C#N)=NNc1ccc2scnc2c1 [Compound 61, benzo[d]thiazol-5-ylcarbonohydrazonoyl dicyanide]	111.7	33.5	5.51	32.6	90.1	70.4	45.1	75.5	93.6	>100	66.2
Cn1ncc2ccc(NN=C(C#N)C#N)cc21 [Compound 63, (1-methyl-1H-indazol-6-yl)carbonohydrazonoyl dicyanide]	111.4	9.5	6.13	82.6	>100	87.4	43.3	84.2	>100	>100	72.1
N#CC(C#N)=NNc1ccc2[nH]ncc2c1 [Compound 69, (1H-indazol-5-yl)carbonohydrazonoyl dicyanide]	204.7	34.2	6.72	71.9	95.2	97.6	80.1	16.6	82.1	>100	64.4
N#CC(C#N)=NNc1cnc2[nH]ccc2c1 [Compound 72, (1H-pyrrolo[2,3-b]pyridin-5-yl)carbonohydrazonoyl dicyanide]	89.5	58.6	7.46	84.8	>100	86.3	85.8	88.7	97.8	98.9	72.8
N#CC(C#N)=NNc1cnc2[nH]cc(Cl)c2c1 [Compound 83, (3-chloro-1H-pyrrolo[2,3-b]pyridin-5-yl)carbonohydrazonoyl dicyanide]	98	11	6.52	31.9	86.4	64.1	47.7	51	96.4	91.1	62.2
N#CC(C#N)=NNc1ccc2nc(NC(=O)c3ccccc3O)sc2c1 [Compound 87, (2-(2-hydroxybenzamido)benzo[d]thiazol-6-yl)carbonohydrazonoyl dicyanide]	75.3	83.1	6.40	80.6	62.7	82.1	77	53.5	86.4	83.6	73.9

Source: patent US12590071B2, “Hydrazone derivative in which terminal amine group is substituted with aryl group or heteroaryl group, and use thereof” (KOREA INSTITUTE OF SCIENCE AND TECHNOLOGY, priority 2018, dated 2026)
